Test results reported in US12458614B2, “Therapeutic agents for improved mobility and cognitive function and for treating neurodegenerative diseases and lysosomal storage disorders” (priority 2017, dated 2025).
Entries after “also recorded” stand apart in the source; their conditions may differ.

Experiments:
[1] = test system: rat model of an acute unilateral labyrinthectomy; settings: acute unilateral labyrinthectomy (Gunther 2015); cited from earlier work
[2] = test system: patient with frontotemporal dementia with parkinsonism; experiment: Case study, frontotemporal dementia with parkinsonism; type: in vivo, human; settings: treatment with L-Dopa and Ropinirol
Text: After approximately one month of acetyl-leucine treatment, medication was stopped and the patient was re-examined 13 days later.

[3] = test system: patients with downbeat nystagmus; experiment: Case studies, downbeat nystagmus; type: in vivo, human; settings: downbeat nystagmus Patients 1 (10 mg twice daily, four weeks) and 2
[4] = test system: patient with Lewy Body dementia; experiment: Case study, Lewy Body dementia; type: in vivo, human; settings: Levodopa 100 mg 4× daily and Quetiapin 25 mg at night
Description: The patient started taking acetyl-leucine (3 g/day for one week; 5 g/day thereafter) and was evaluated after four weeks. […] Medication was reduced to 3 g/day, and the patient was instructed to stop medication about two weeks later.

[5] = test system: patients with amyotrophic lateral sclerosis (ALS); experiment: Case studies, amyotrophic lateral sclerosis; type: in vivo, human; settings: ALS Patient 1
Text: The results were documented by video.

[6] = test system: patient with corticobasal syndrome; experiment: Case study, corticobasal syndrome; type: in vivo, human; settings: treatment with L-Dopa
Description: Gait analysis was performed before treatment commenced.

[7] = test system: patients with progressive supranuclear palsy; experiment: Case studies, progressive supranuclear palsy; type: in vivo, human; settings: individual PSP patients 1 to 4
Description: After 27 days of acetyl-leucine treatment, medication was stopped and the patient was re-examined 60 days later. […] Gait analysis was performed before treatment commenced. After 17 days of treatment, medication was stopped and the patient was re-examined 4 days later. […] Gait analysis was performed before treatment commenced. After three weeks of treatment, medication was stopped and the patient was re-examined.

[8] = test system: patients with multiple system atrophy Parkinson type (MSA-P); experiment: Case studies, multiple system atrophy Parkinson type; type: in vivo, human; settings: MSA-P Patient 3
Text: Medication was stopped. […] The patient evaluated after one month on acetyl-DL-leucine. […] Episodes of mental confusion completely disappeared. The patient's cognitive structure seemed much clearer and straighter. […] The patient's spouse supported continuing the medication.

[9] = test system: person with balance disorder/senile gait disorder; experiment: Case study Example 23; type: in vivo, human; settings: treatment with L-Dopa
[10] = test system: patient with progressive gait disorder; experiment: Case study Example 26, quantitative gait analysis; type: in vivo, human; settings: treatment with L-Dopa
[11] = test system: patients with multiple system atrophy Parkinson type (MSA-P); experiment: Case studies, multiple system atrophy Parkinson type; type: in vivo, human; settings: MSA-P Patient 1, 100/25 mg 3× daily

CC(=O)N[C@@H](CC(C)C)C(=O)O [acetyl-L-leucine]
postural compensation [1]: significant effect

CCCN(CCC)CCc1cccc2c1CC(=O)N2 [Ropinirol]
Response to prior medication [2]: little improvement

Nc1ccncc1 [4-aminopyridine]
Benefit of prior medication [3]: did not give rise to any benefit
Benefit of prior medication ([3]; listed as Fampyra®): did not benefit

OCCOCCN1CCN(C2=Nc3ccccc3Sc3ccccc32)CC1 [Quetiapin]
Response to prior medication [4]: improved the symptomatology

Nc1nc2ccc(OC(F)(F)F)cc2s1 [Riluzol]
Clinical symptomatology under prior medication [5]: remained unchanged

N[C@@H](Cc1ccc(O)c(O)c1)C(=O)O [L-Dopa]
Response to prior medication [2]: little improvement
Response to prior medication [6]: no improvement
Levodopa response [7]: little improvement
Levodopa response ([7]; listed as levodopa): no levodopa response; also recorded: slight levodopa response
Tolerability of Levodopa therapy [8]: suspended due to side effects
Response to prior medication [4]: improved the symptomatology
Response to prior medication [9]: no improvement
Response to prior medication [10]: No improvement
Levodopa response [11]: discreet Levodopa response
